Data: patent US9670250B2, “Alpha-helical peptidomimetic inhibitors and methods using same” (The Trustees of the University of Pennsylvania, priority 2012, dated 2017)
Starred links: 1 amine or outer side, 2 acyl side, 3 side chain; linkers in the order of their positions; H or OH if unused. Positions of bridges follow the written chain, without caps; N, C: chain ends. Residues, ends and D or L forms follow the SMILES beside them. mXylylene = c1cc(C[*:1])cc(C[*:2])c1

Columns and labels:
Assay type in all cases: biochemical
Cathepsin K = biological target: T1, Cathepsin K (Homo sapiens, UniProt P43235); test: in vitro fluorescence-based protease inhibition assay, cathepsin K
T1 sequence (P43235 115-329): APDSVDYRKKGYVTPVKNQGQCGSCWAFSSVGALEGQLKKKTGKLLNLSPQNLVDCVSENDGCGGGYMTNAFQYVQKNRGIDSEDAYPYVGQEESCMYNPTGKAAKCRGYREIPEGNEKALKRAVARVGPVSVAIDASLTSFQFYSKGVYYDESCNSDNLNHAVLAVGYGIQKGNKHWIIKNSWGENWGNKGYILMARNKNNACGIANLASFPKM
From the text: (§1) Thus, the present invention includes a series of potent and highly specific α-helical inhibitors for papain family cysteine proteases. […] These short α-helical peptidomimetic inhibitors are modeled after the natural pro-domain sequence but contain a cysteine substitution at specific residues in i,i+4 positions, as shown in FIG. 2B. These cysteine residues are used for stabilization of the helix utilizing an appropriate linker (Muppidi, et al., 2011, Chem Commun (Camb) 47:9396-9398). After synthesis, each inhibitor was tested against its respective protease using an in vitro fluorescence-based assay. For each enzyme, at least one inhibitor was identified that is relatively potent and highly specific for its individual protease. These inhibitors can be modified or otherwise optimized to attain higher potency and selectivity through identification of key interactions between the inhibitor and the active site amino acid residues. Such optimization involves visual examination of the protease crystal structure, and substitution with either non-natural or natural amino acids to exploit possible crucial non-covalent protein ligand interactions, such as hydrogen bond, electrostatic, hydrophobic, and Van der Waals interactions.

Calpain (Calpain-1) = biological target: T2, Calpain (Calpain-1) (Homo sapiens, UniProt P07384); test: in vitro fluorescence-based protease inhibition assay, calpain
T2 sequence (P07384 1-714): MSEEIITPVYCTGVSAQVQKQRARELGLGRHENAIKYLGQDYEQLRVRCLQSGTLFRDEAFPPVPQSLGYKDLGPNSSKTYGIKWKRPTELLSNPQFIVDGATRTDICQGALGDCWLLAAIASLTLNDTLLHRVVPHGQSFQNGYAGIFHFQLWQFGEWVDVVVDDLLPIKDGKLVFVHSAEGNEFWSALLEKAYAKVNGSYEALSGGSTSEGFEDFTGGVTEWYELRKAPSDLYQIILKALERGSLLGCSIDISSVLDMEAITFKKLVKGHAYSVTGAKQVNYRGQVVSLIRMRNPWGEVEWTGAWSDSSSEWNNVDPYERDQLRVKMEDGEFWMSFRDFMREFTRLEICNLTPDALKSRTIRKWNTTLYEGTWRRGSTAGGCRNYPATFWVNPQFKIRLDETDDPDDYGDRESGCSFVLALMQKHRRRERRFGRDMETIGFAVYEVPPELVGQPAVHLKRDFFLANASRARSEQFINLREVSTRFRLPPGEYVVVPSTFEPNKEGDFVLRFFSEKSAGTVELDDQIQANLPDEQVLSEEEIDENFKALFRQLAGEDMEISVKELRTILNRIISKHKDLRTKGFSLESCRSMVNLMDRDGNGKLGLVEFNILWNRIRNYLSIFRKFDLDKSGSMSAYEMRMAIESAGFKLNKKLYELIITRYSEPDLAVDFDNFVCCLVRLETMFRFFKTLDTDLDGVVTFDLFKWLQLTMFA
T2 sequence (P04632 1-268 partner): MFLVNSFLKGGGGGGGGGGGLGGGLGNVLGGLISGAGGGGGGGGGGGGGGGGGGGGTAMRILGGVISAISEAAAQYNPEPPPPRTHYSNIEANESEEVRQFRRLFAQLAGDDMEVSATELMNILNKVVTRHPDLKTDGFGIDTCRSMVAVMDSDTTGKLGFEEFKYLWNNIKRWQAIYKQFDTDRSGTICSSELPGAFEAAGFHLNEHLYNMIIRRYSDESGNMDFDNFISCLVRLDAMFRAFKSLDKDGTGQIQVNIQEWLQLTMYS
From the text: as §1

Cathepsin L = Cathepsin L (Homo sapiens, UniProt P07711); test: in vitro fluorescence-based protease inhibition assay, cathepsin L; details: for Ki: Table 4, calpain inhibitors
From the text: as §1

[1] = Table 2, cathepsin S inhibitors

Cathepsin L, sequence (P07711 114-333, species assumed): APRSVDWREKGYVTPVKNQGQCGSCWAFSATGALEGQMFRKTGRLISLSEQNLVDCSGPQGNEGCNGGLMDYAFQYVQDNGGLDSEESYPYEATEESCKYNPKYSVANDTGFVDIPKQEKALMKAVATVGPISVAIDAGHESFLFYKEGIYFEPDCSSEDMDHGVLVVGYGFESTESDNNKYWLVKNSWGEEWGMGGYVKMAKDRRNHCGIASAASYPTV

## 35 (SCELVCKMTGL) [compound 35]
Cathepsin K; between 200-500 nM & 50 μM
  Cathepsin K activity: 80% activity

## CSCC[C@H](NC(=O)[C@H](CCCCN)NC(=O)[C@H](CCC(N)=O)NC(=O)[C@@H](NC(=O)[C@@H](NC(=O)[C@H](CCC(=O)O)NC(=O)[C@H](CCC(=O)O)NC(=O)[C@@H](N)CO)C(C)C)C(C)C)C(=O)N[C@H](C(=O)NCC(=O)N[C@@H](CC(C)C)C(=O)O)[C@@H](C)O [SEQ ID NO:32, SEEVVQKMTGL, reference compound] (H-SEEVVQKMTGL-OH)
Cathepsin K
  effect on cathepsin K (inhibition or activation), in words: did not inhibit

## CSCC[C@@H]1NC(=O)[C@H](CC(C)C)NC(=O)[C@H](CO)NC(=O)[C@@H](NC(=O)[C@@H](NC(=O)[C@H](CCC(=O)O)NC(=O)[C@H](CCC(=O)O)NC(=O)[C@H](CO)NC(=O)[C@@H](N)Cc2c[nH]c3ccccc23)C(C)C)CSCc2cccc(c2)CSC[C@@H](C(=O)N[C@@H](CO)C(=O)O)NC1=O [compound 17] (H-WSEEVCSLMCS-OH; linker 6-10 via mXylylene; N-terminus and C-terminus assumed)
Calpain (Calpain-1); [1]
  Ki: 108 ± 1.28 µM
Cathepsin K; [1]
  Ki: > 100 µM

## CSCC[C@@H]1NC(=O)[C@H](CC(C)C)NC(=O)[C@H](CO)NC(=O)[C@@H](NC(=O)[C@@H](NC(=O)[C@H](Cc2c[nH]c3ccccc23)NC(=O)[C@H](CCC(=O)O)NC(=O)[C@H](Cc2c[nH]c3ccccc23)NC(=O)[C@@H](N)[C@@H](C)O)C(C)C)CSCc2cccc(c2)CSC[C@@H](C(=O)N[C@@H](CO)C(=O)O)NC1=O [compound 23] (H-TWEWVCSLMCS-OH; linker 6-10 via mXylylene; N-terminus and C-terminus assumed)
Calpain (Calpain-1); [1]
  Ki: 88.4 ± 1.13 µM

## CSCC[C@@H]1NC(=O)[C@H](CC(C)C)NC(=O)[C@H](CO)NC(=O)[C@@H](NC(=O)[C@@H](NC(=O)[C@H](Cc2c[nH]c3ccccc23)NC(=O)[C@H](CCC(=O)O)NC(=O)[C@H](Cc2c[nH]c3ccccc23)NC(=O)[C@@H](N)Cc2c[nH]c3ccccc23)C(C)C)CSCc2cccc(c2)CSC[C@@H](C(=O)N[C@@H](CO)C(=O)O)NC1=O [compound 25] (H-WWEWVCSLMCS-OH; linker 6-10 via mXylylene; N-terminus and C-terminus assumed)
Calpain (Calpain-1); [1]
  Ki: 85.5 ± 1.3 µM

## CC[C@H](C)[C@H](N)C(=O)N1CCC[C@H]1C(=O)N1CCC[C@H]1C(=O)N[C@@H](CCCCN)C(=O)N[C@@H](Cc1ccc(O)cc1)C(=O)N[C@H]1CSCc2cccc(c2)CSC[C@@H](C(=O)O)NC(=O)[C@H](CC(C)C)NC(=O)[C@H](CC(C)C)NC(=O)[C@H](CCC(=O)O)NC1=O [compound 65]
Calpain (Calpain-1); Table 4, calpain inhibitors
  Ki: 10.2 ± 2.9 µM
Cathepsin K; Table 4, calpain inhibitors
  Ki: > 100 µM

## CC[C@H](C)[C@H](NC(=O)[C@@H](NC(=O)[C@@H](NC(=O)[C@@H](N)CCC(=O)O)C(C)C)[C@@H](C)O)C(=O)N1CCC[C@H]1C(=O)N1CCC[C@H]1C(=O)N[C@@H](CCCCN)C(=O)N[C@@H](Cc1ccc(O)cc1)C(=O)N[C@H]1CSCc2cccc(c2)CSC[C@@H](C(=O)O)NC(=O)[C@H](CC(C)C)NC(=O)[C@H](CC(C)C)NC(=O)[C@H](CCC(=O)O)NC1=O [compound 69] (H-EVTIPPKYCELLC-OH; linker 9-13 via mXylylene; N-terminus and C-terminus assumed)
Calpain (Calpain-1); Table 4, calpain inhibitors
  Ki: 5.3 ± 1.9 µM
Cathepsin K; Table 4, calpain inhibitors
  Ki: > 100 µM

## CC(C)C[C@@H]1NC(=O)[C@H](CC(C)C)NC(=O)[C@H](CCC(=O)O)NC(=O)[C@@H](NC(=O)[C@H](Cc2ccc(O)cc2)NC(=O)[C@H](CCCCN)NC(=O)[C@@H]2CCCN2C(=O)[C@@H]2CCCN2C(=O)[C@H](C)N)CSCc2cccc(c2)CSC[C@@H](C(=O)O)NC1=O [compound 72] (H-APPKYCELLC-OH; linker 6-10 via mXylylene; N-terminus and C-terminus assumed)
Calpain (Calpain-1); Table 4, calpain inhibitors
  Ki: 65.6 ± 20.5 µM
Cathepsin L
  Ki: 12.5 ± 1.2 µM

## CC(C)C[C@@H]1NC(=O)[C@H](CC(C)C)NC(=O)[C@H](CCC(=O)O)NC(=O)[C@@H](NC(=O)[C@H](Cc2ccc(O)cc2)NC(=O)[C@H](CCCCN)NC(=O)[C@@H]2CCCN2C(=O)[C@@H]2CCCN2C(=O)[C@@H](N)CC(C)C)CSCc2cccc(c2)CSC[C@@H](C(=O)O)NC1=O [compound 74] (H-LPPKYCELLC-OH; linker 6-10 via mXylylene; N-terminus and C-terminus assumed)
Calpain (Calpain-1); Table 4, calpain inhibitors
  Ki: 11 ± 3.6 µM
Cathepsin K; Table 4, calpain inhibitors
  Ki: > 100 µM

## CC(C)C[C@@H]1NC(=O)[C@H](CC(C)C)NC(=O)[C@H](CCC(=O)O)NC(=O)[C@@H](NC(=O)[C@H](Cc2ccc(O)cc2)NC(=O)[C@H](CCCCN)NC(=O)[C@@H]2CCCN2C(=O)[C@@H]2CCCN2C(=O)[C@@H](N)CCC(N)=O)CSCc2cccc(c2)CSC[C@@H](C(=O)O)NC1=O [compound 76] (H-QPPKYCELLC-OH; linker 6-10 via mXylylene; N-terminus and C-terminus assumed)
Calpain (Calpain-1); Table 4, calpain inhibitors
  Ki: 35 ± 10.4 µM

## CC[C@H](C)[C@H](N)C(=O)N1CCC[C@H]1C(=O)N1CCC[C@H]1C(=O)N[C@@H](CCCNC(=N)N)C(=O)N[C@@H](Cc1ccc(O)cc1)C(=O)N[C@H]1CSCc2cccc(c2)CSC[C@@H](C(=O)O)NC(=O)[C@H](CC(C)C)NC(=O)[C@H](CC(C)C)NC(=O)[C@H](CCC(=O)O)NC1=O [compound 80] (H-IPPRYCELLC-OH; linker 6-10 via mXylylene; N-terminus and C-terminus assumed)
Calpain (Calpain-1); Table 4, calpain inhibitors
  Ki: 5.3 ± 2 µM
Cathepsin K; Table 4, calpain inhibitors
  Ki: > 100 µM

## CC[C@H](C)[C@H](N)C(=O)N1CCC[C@H]1C(=O)N1CCC[C@H]1C(=O)N[C@@H](CCCCN)C(=O)N[C@@H](C)C(=O)N[C@H]1CSCc2cccc(c2)CSC[C@@H](C(=O)O)NC(=O)[C@H](CC(C)C)NC(=O)[C@H](CC(C)C)NC(=O)[C@H](CCC(=O)O)NC1=O [compound 81] (H-IPPKACELLC-OH; linker 6-10 via mXylylene; N-terminus and C-terminus assumed)
Calpain (Calpain-1); Table 4, calpain inhibitors
  Ki: > 100 µM

## CC[C@H](C)[C@H](N)C(=O)N1CCC[C@H]1C(=O)N1CCC[C@H]1C(=O)N[C@@H](CCCCN)C(=O)N[C@@H](Cc1ccc(O)cc1)C(=O)N[C@H]1CSCc2cccc(c2)CSC[C@@H](C(=O)O)NC(=O)[C@H](CC(C)C)NC(=O)[C@H](CC(C)C)NC(=O)[C@H](C)NC1=O [compound 84] (H-IPPKYCALLC-OH; linker 6-10 via mXylylene; N-terminus and C-terminus assumed)
Calpain (Calpain-1); Table 4, calpain inhibitors
  Ki: 28.9 ± 9.1 µM
Cathepsin L
  Ki: 12.5 ± 1.1 µM

## CC[C@H](C)[C@H](N)C(=O)N1CCC[C@H]1C(=O)N1CCC[C@H]1C(=O)N[C@@H](CCCCN)C(=O)N[C@@H](Cc1ccc(O)cc1)C(=O)N[C@H]1CSCc2cccc(c2)CSC[C@@H](C(=O)O)NC(=O)[C@H](CC(C)C)NC(=O)[C@H](CCC(N)=O)NC(=O)[C@H](CCC(=O)O)NC1=O [compound 85] (H-IPPKYCEQLC-OH; linker 6-10 via mXylylene; N-terminus and C-terminus assumed)
Calpain (Calpain-1); Table 4, calpain inhibitors
  Ki: 11 ± 3.6 µM
Cathepsin K; Table 4, calpain inhibitors
  Ki: > 100 µM

## CC[C@H](C)[C@H](N)C(=O)N1CCC[C@H]1C(=O)N1CCC[C@H]1C(=O)N[C@@H](CCCCN)C(=O)N[C@@H](Cc1ccc(O)cc1)C(=O)N[C@H]1CSCc2cccc(c2)CSC[C@@H](C(=O)O)NC(=O)[C@H](CC(C)C)NC(=O)[C@H](C)NC(=O)[C@H](CCC(=O)O)NC1=O [compound 86] (H-IPPKYCEALC-OH; linker 6-10 via mXylylene; N-terminus and C-terminus assumed)
Calpain (Calpain-1); Table 4, calpain inhibitors
  Ki: 30.9 ± 9.2 µM

## SECFRQCMNGF [SEQ ID NO:2]
Cathepsin L
  cathepsin L inhibitory activity, in words: low activity

## SEEFRQVMNGF [SEQ ID NO:1, reference compound]
Cathepsin L
  cathepsin L inhibitory activity, in words: no inhibitory activity
